Results on 14 molecules are retold here after patent US11530244B2, “Cyclic polypeptides for PCSK9 inhibition” (priority 2018, dated 2022).

Test [1] deals with PCSK9 (Homo sapiens (Human), UniProt Q8NBP7). Kind of test: PCSK9 Alexa FRET Standard assay (displacement of AlexaFluor647 tagged cyclic peptide Reagent A). In kind it is binding. The following applies: PCSK9 Alexa FRET Standard assay, 0.5 nM PCSK9, 20 nM AF cyclic peptide Reagent A; read-out: IC50. The method in brief:
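TR-FRET displacement: 0.5 nM biotinylated PCSK9 with 1.25 nM Strep-Eu and 20 nM AlexaFluor-tagged cyclic peptide (final) in 50 mM HEPES pH 7.4, 0.15 M NaCl, 5 mM CaCl2, 0.01% BSA, 0.01% P20, ≥2 h at room temperature. IC50 from sigmoidal fit, converted to Ki via peptide KD; falling Eu counts flagged false positives.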

Test [2] concerns the target human PCSK9 / human LDLR EGFa domain interaction (Homo sapiens (Human), UniProt Q8NBP7). As to the kind of experiment: TR-FRET assay of inhibition of the PCSK9-LDLR protein-protein interaction. In kind it is binding. The settings on record: TR-FRET, 20 nM human PCSK9, 20 nM human LDLR EGFa domain, 2 hours room temperature; read-out: IC50. The method in brief: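 20 nM biotin-avitag PCSK9 + 20 nM His-LDLR EGFa; 5 nM Ulight-SA / 5 nM Eu-anti-His; 2 h RT; HEPES 50 mM, NaCl 150 mM, CaCl2 5 mM, 0.01% BSA, 0.01% P20. Half-maximal inhibition, 4-parameter fit.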

Starred links: 1 amine or outer side, 2 acyl side, 3 side chain; linkers in the order of their positions; H or OH if unused. Positions of bridges follow the written chain, without caps; N, C: chain ends. Non-standard residues stand in square brackets, D forms with d. Residues, ends and D or L forms follow the SMILES beside them. Phe(3-CH2NH2) = O=C([C@H](Cc1cccc(CN[*:3])c1)N[*:1])[*:2]; NHCH2(1,3-C6H4)CH2CO = O=C(Cc1cccc(CN[*:1])c1)[*:2]; Phe(4-COOH) = N[C@@H](Cc1ccc(C(=O)O)cc1)C(=O)O; Trp(5-F) = N[C@@H](Cc1c[nH]c2ccc(F)cc12)C(=O)O; X30 = COc1ccc(C[C@H](N[*:1])C(=O)[*:2])cc1Cl; X11 = COc1ccc(C[C@H](N[*:1])C(=O)[*:2])cc1C; Asp(3,3-Me2) = CC(C)(C(=O)O)[C@H](N)C(=O)O; X17 = O=C(CCSCc1ccc(CSCCN[*:1])cc1)[*:2]; Pro(4S-NH2) = N[C@@H]1CN[C@H](C(=O)O)C1; X4 = O=C(CCSCc1cccc(CSCCN[*:1])c1)[*:2]; Orn(N3) = [N-]=[N+]=NCCC[C@H](N)C(=O)O; X23 = CC[C@@]1(C(=O)[*:2])CCCN1[*:1]; mXylylene = c1cc(C[*:1])cc(C[*:2])c1; NMeY = CN[C@@H](Cc1ccc(O)cc1)C(=O)O; X47 = O=C(O)CCCCC(N[*:1])C(=O)[*:2]; d(aThr) = C[C@@H](O)[C@@H](N)C(=O)O; Val(3-OH) = CC(C)(O)[C@H](N)C(=O)O; X39 = c1cc(CCSCN[*:2])cc(C[*:1])c1; X7 = O=C(Cc1ccc(CN[*:1])cc1)[*:2]; αMeP = C[C@@]1(C(=O)O)CCCN1; Ava = NCCCCC(=O)O; Mpa = O=C(O)CCS

PCSK9, sequence (Q8NBP7 153-692): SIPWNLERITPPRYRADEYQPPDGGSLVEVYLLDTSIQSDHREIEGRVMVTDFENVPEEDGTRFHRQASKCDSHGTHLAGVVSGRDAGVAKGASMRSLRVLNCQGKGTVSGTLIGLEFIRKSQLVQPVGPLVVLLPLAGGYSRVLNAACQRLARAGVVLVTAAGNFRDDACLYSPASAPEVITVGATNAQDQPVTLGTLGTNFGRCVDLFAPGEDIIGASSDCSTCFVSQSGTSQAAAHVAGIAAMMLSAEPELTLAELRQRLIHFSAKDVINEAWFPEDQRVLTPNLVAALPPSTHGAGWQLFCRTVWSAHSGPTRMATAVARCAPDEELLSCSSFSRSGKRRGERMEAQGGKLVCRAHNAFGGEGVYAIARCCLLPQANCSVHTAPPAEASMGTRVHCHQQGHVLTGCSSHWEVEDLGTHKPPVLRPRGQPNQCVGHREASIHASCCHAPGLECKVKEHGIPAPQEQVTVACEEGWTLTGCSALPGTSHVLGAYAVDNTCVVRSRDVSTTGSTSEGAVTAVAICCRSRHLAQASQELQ
human PCSK9 / human LDLR EGFa domain interaction, sequence (Q8NBP7 153-692): as above
human PCSK9 / human LDLR EGFa domain interaction, sequence (Q8NBP7 31-152 partner): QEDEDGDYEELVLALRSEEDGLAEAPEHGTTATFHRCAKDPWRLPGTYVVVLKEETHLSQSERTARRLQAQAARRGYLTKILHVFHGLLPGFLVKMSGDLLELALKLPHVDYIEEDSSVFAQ

Take `CC(C)C[C@H]1NC(=O)[C@H](CCCCN)NC(=O)CCSCc2cccc(c2)CSC[C@@H](C(N)=O)NC(=O)[C@]2(C)CCCN2C(=O)[C@H](Cc2ccc(O)cc2)NC(=O)[C@H](Cc2cnc[nH]2)NC(=O)[C@H](CC(=O)O)NC(=O)[C@H](Cc2c[nH]c3ccc(F)cc23)NC(=O)[C@H](Cc2c[nH]c3ccc(F)cc23)NC1=O` [Compound 373] ([Mpa]K[dL][Trp(5-F)][Trp(5-F)]DHY[αMeP]C-NH2; linker 1-10 via mXylylene): the IC50 – broadly, the concentration at which inhibition is half-maximal – in test [1] lay in the range of 100 to 1000 nM; in test [2], 0.1 to 100 nM.

With `CC(C)(O)[C@@H]1NC(=O)CCSCc2cccc(c2)CSC[C@@H](C(N)=O)NC(=O)[C@]2(C)CCCN2C(=O)[C@H](Cc2ccc(O)cc2)NC(=O)[C@H](Cc2cnc[nH]2)NC(=O)[C@H](CC(=O)O)NC(=O)[C@H](Cc2c[nH]c3ccc(F)cc23)NC(=O)[C@H](Cc2c[nH]c3ccc(F)cc23)NC(=O)CNC1=O` [Compound 374] ([Mpa][Val(3-OH)]G[Trp(5-F)][Trp(5-F)]DHY[αMeP]C-NH2; linker 1-10 via mXylylene), the IC50 fell in the range of 100 to 1000 nM in test [1] and 0.1 to 100 nM in test [2].

Take `CC[C@@]12CCCN1C(=O)[C@H](Cc1ccc(O)cc1)NC(=O)[C@H](Cc1cnc[nH]1)NC(=O)[C@H](CC(=O)O)NC(=O)[C@H](Cc1c[nH]c3ccc(F)cc13)NC(=O)[C@H](Cc1c[nH]c3ccc(F)cc13)NC(=O)CNC(=O)[C@H](CCCCN)NC(=O)CCSCc1cccc(c1)CSC[C@@H](C(N)=O)NC2=O` [Compound 378] ([Mpa]KG[Trp(5-F)][Trp(5-F)]DHY[X23]C-NH2; linker 1-10 via mXylylene): the results for the IC50 in test [1] and in test [2] were 0.11 to 100 nM and 0.1 to 100 nM, respectively.

In the case of `COc1ccc(C[C@@H]2NC(=O)[C@H](Cc3cnc[nH]3)NC(=O)[C@H](CC(=O)O)NC(=O)[C@H](Cc3c[nH]c4ccc(F)cc34)NC(=O)[C@H](Cc3c[nH]c4ccc(F)cc34)NC(=O)[C@@H](C)NC(=O)CCCCNC(=O)c3ccc(cc3)C[C@@H](C(N)=O)NC(=O)[C@]3(C)CCCN3C2=O)cc1` [Compound 380] ([Ava][dA][Trp(5-F)][Trp(5-F)]DHY(Me)[αMeP][Phe(4-COOH)]-NH2; lactam N-9), the IC50 in test [1] and in test [2] was 21000 to 50000 nM in each case.

With `COc1ccc(C[C@@H]2NC(=O)[C@H](Cc3cnc[nH]3)NC(=O)[C@H](CC(=O)O)NC(=O)[C@H](Cc3c[nH]c4ccc(F)cc34)NC(=O)[C@H](Cc3c[nH]c4ccc(F)cc34)NC(=O)[C@@H](C)NC(=O)[C@H](NC(C)=O)Cc3cn(nn3)-c3ccc(cc3)C[C@@H](C(N)=O)NC(=O)[C@]3(C)CCCN3C2=O)cc1` [Compound 381], the values for the IC50 in test [1] and in test [2] were 1000 to 12100 nM and 100 to 1000 nM, respectively.

On to `COc1ccc(C[C@@H]2NC(=O)[C@H](CCC(=O)O)NC(=O)[C@@H]3C[C@H](N)CN3C(=O)[C@H](Cc3c[nH]c4ccc(F)cc34)NC(=O)[C@H](Cc3c[nH]c4ccc(F)cc34)NC(=O)[C@@H](C)NC(=O)[C@H](C)NC(=O)CCSCc3ccc(cc3)CSCCNC(=O)[C@]3(C)CCCN3C2=O)cc1` [Compound 382] (cyclo(A[dA][Trp(5-F)][Trp(5-F)][Pro(4S-NH2)]EY(Me)[αMeP][X17])), for which the values for the IC50 in test [1] and in test [2] were 0.11 to 100 nM and 0.1 to 100 nM, respectively.

For `C[C@H]1NC(=O)[C@H](CCCCN)NC(=O)CCSCc2cccc(c2)CSCCNC(=O)[C@]2(C)CCCN2C(=O)[C@H](Cc2ccc(O)cc2)N(C)C(=O)[C@H](Cc2c[nH]cn2)NC(=O)[C@H](C(C)(C)C(=O)O)NC(=O)[C@H](Cc2c[nH]c3ccc(F)cc23)NC(=O)[C@H](Cc2c[nH]c3ccc(F)cc23)NC1=O` [Compound 383] (cyclo(H[NMeY][αMeP][X4]K[dA][Trp(5-F)][Trp(5-F)][Asp(3,3-Me2)])), the IC50 in test [1] lay within 100 to 1000 nM; in test [2], 0.1 to 100 nM.

As for `COc1ccc(C[C@@H]2NC(=O)[C@@H]([C@@H](C)O)NC(=O)[C@H](CC(=O)O)NC(=O)[C@H](Cc3c[nH]c4ccc(F)cc34)NC(=O)[C@H](Cc3cccc(CN)c3)NC(=O)[C@@H](C)NC(=O)[C@H](C)NC(=O)CCSCc3cccc(c3)CSCCNC(=O)[C@]3(C)CCCN3C2=O)cc1` [Compound 384] (cyclo(A[dA][Phe(3-CH2NH2)][Trp(5-F)]D[d(aThr)]Y(Me)[αMeP][X4])), the IC50 in test [1] and in test [2] was 21000 to 50000 nM throughout.

In the case of `COc1ccc(C[C@@H]2NC(=O)[C@H](Cc3c[nH]cn3)NC(=O)[C@H](CC(=O)O)NC(=O)[C@H](Cc3c[nH]c4ccc(F)cc34)NC(=O)[C@H](Cc3c[nH]c4ccc(F)cc34)NC(=O)[C@@H](C)NC(=O)[C@H](CCCCN)NC(=O)CCSCc3cccc(c3)CSCCNC(=O)[C@]3(C)CCCN3C2=O)cc1Cl` [Compound 386] (cyclo(DH[X30][αMeP][X4]K[dA][Trp(5-F)][Trp(5-F)])), the figures for the IC50 in test [1] and in test [2] were 100 to 1000 nM and 0.1 to 100 nM, respectively.

For the molecule `COc1ccc(C[C@@H]2NC(=O)[C@H](Cc3c[nH]cn3)NC(=O)[C@H](CC(=O)O)NC(=O)[C@H](Cc3c[nH]c4ccc(F)cc34)NC(=O)[C@H](Cc3c[nH]c4ccc(F)cc34)NC(=O)[C@@H](C)NC(=O)[C@H](CCCCN)NC(=O)CCSCc3cccc(c3)CSCCNC(=O)[C@]3(C)CCCN3C2=O)cc1C` [Compound 387] (cyclo(DH[X11][αMeP][X4]K[dA][Trp(5-F)][Trp(5-F)])), the IC50 in test [1] lay within 100 to 1000 nM; in test [2], 0.1 to 100 nM.

Consider `COc1ccc(C[C@@H]2NC(=O)C(CCCCC(=O)O)NC(=O)[C@@H]3C[C@H](N)CN3C(=O)[C@H](Cc3c[nH]c4ccc(F)cc34)NC(=O)[C@H](Cc3c[nH]c4ccc(F)cc34)NC(=O)[C@@H](C)NC(=O)[C@H](CCCN=[N+]=[N-])NC(=O)CCSCc3cccc(c3)CCSCNC(=O)[C@]3(C)CCCN3C2=O)cc1` (stereo partly drawn) [Compound 388] ([Mpa][Orn(N3)][dA][Trp(5-F)][Trp(5-F)][Pro(4S-NH2)][X47]Y(Me)[αMeP]; linker 1-C via X39), for which the IC50 fell in the range of 100 to 1000 nM in test [1] and 0.1 to 100 nM in test [2].

For the molecule `COc1ccc(C[C@@H]2NC(=O)[C@H](Cc3cnc[nH]3)NC(=O)[C@H](CC(=O)O)NC(=O)[C@H](Cc3c[nH]c4ccc(F)cc34)NC(=O)[C@H](Cc3c[nH]c4ccc(F)cc34)NC(=O)[C@@H](C)NC(=O)Cc3cccc(c3)CNC(=O)c3ccc(cc3)C[C@@H](C(N)=O)NC(=O)[C@]3(C)CCCN3C2=O)cc1` [Compound 390] ([NHCH2(1,3-C6H4)CH2CO][dA][Trp(5-F)][Trp(5-F)]DHY(Me)[αMeP][Phe(4-COOH)]-NH2; lactam N-9), the IC50 is 100 to 1000 nM in test [1] and 0.1 to 100 nM in test [2].

Consider `COc1ccc(C[C@@H]2NC(=O)[C@H](Cc3cnc[nH]3)NC(=O)[C@H](CC(=O)O)NC(=O)[C@H](Cc3c[nH]c4ccc(F)cc34)NC(=O)[C@H](Cc3c[nH]c4ccc(F)cc34)NC(=O)[C@@H](C)NC(=O)Cc3ccc(cc3)CNC(=O)c3ccc(cc3)C[C@@H](C(N)=O)NC(=O)[C@]3(C)CCCN3C2=O)cc1` [Compound 391] ([X7][dA][Trp(5-F)][Trp(5-F)]DHY(Me)[αMeP][Phe(4-COOH)]-NH2; lactam N-9), for which the IC50 in test [1] is 100 to 1000 nM; in test [2], 0.1 to 100 nM.

Take `COc1ccc(C[C@@H]2NC(=O)[C@H](Cc3cnc[nH]3)NC(=O)[C@H](CC(=O)O)NC(=O)[C@H](Cc3c[nH]c4ccc(F)cc34)NC(=O)[C@H](Cc3c[nH]c4ccc(F)cc34)NC(=O)[C@H](C)NC(=O)[C@H](NC(C)=O)CCc3cn(nn3)-c3ccc(cc3)C[C@@H](C(N)=O)NC(=O)[C@]3(C)CCCN3C2=O)cc1` [Compound 392]: the IC50 lay in the range of 100 to 1000 nM in test [1] and 0.1 to 100 nM in test [2].
